Values of other authors, collected in patent US6548270B1, “DNA encoding human acid-sensing ion channel BNaC4 (ASIC4)” (Ortho-McNeil Pharmaceutical, Inc., priority 2000, dated 2003).
pIC50: −log10 of the molar value.

Tests used:
[1] = molecular target: T1, MDEG1 + MDEG2 (Rattus norvegicus, UniProt Q62962); conditions: 500 μM amiloride; cited from earlier work
T1 sequence (Q62962 1-512): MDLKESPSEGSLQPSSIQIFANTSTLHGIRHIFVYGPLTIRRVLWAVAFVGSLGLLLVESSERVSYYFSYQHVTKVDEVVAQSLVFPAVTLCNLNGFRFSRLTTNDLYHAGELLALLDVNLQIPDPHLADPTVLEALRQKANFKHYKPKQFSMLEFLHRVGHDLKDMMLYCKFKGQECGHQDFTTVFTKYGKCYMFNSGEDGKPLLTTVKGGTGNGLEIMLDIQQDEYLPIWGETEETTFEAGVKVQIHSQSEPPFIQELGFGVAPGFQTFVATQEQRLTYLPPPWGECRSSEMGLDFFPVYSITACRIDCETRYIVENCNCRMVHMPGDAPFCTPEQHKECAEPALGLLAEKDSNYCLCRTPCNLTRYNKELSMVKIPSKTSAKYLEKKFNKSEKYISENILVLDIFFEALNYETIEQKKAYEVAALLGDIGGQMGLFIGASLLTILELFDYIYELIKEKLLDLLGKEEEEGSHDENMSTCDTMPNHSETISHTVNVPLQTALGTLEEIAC
T1 sequence (Q62962 1-563 isoform Q62962-2): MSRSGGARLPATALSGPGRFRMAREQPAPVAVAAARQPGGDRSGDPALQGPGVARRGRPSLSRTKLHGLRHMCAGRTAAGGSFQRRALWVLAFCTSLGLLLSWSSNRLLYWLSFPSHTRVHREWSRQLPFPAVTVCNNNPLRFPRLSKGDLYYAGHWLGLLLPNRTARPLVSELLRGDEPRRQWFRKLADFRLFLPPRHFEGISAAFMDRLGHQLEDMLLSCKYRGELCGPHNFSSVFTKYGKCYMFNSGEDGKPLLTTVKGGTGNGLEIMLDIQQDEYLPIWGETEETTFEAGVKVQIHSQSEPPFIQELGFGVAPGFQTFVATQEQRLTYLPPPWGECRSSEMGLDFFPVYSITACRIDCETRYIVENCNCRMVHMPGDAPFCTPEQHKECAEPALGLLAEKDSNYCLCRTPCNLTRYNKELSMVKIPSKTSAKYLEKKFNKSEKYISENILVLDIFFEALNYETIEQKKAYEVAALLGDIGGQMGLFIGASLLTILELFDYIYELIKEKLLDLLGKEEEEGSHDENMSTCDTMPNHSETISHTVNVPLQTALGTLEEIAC

[2] = molecular target: T2, hASIC3 (Homo sapiens, UniProt Q9UHC3); conditions: 100 μM amiloride, Seguela and Babinski, 1999; cited from earlier work
T2 sequence (Q9UHC3 1-531): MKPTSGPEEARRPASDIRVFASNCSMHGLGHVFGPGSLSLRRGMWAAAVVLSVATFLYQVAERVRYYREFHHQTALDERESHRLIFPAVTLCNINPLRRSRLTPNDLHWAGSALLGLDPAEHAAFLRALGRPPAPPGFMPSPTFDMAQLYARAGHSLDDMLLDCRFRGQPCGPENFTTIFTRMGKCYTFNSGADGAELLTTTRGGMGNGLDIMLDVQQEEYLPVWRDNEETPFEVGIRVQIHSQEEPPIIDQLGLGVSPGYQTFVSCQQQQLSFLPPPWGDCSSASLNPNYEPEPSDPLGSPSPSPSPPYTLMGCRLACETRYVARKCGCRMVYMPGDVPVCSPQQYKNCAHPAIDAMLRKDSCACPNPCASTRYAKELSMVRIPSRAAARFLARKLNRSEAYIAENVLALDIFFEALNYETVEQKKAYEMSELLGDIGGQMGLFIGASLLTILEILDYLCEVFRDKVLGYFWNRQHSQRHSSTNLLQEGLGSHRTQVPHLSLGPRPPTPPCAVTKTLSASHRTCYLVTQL

[3] = system: ASIC2a; conditions: ASIC2a gain of function mutant channels; cited from earlier work
[4] = molecular target: T3, ASIC1B (Rattus norvegicus, UniProt P55926); conditions: read-out: Amiloride sensitivity, IC50; cited from earlier work
T3 sequence (P55926 1-559 isoform P55926-3): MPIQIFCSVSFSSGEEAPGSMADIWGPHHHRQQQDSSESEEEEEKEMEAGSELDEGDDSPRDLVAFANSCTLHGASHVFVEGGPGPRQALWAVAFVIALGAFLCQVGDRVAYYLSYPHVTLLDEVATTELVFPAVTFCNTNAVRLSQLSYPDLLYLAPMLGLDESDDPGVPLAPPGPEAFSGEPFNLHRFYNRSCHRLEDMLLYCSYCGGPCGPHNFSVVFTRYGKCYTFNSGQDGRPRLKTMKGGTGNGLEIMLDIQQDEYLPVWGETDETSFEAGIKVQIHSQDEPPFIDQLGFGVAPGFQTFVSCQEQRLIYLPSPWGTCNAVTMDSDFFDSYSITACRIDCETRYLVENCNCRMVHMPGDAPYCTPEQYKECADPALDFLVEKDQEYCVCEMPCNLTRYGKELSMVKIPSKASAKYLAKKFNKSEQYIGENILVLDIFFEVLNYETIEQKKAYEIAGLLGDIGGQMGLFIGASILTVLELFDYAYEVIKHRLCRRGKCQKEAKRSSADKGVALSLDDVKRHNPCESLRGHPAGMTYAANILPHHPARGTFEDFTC

N=C(N)NC(=O)c1nc(Cl)c(N)nc1N [amiloride]
Amiloride sensitivity (block) [1]: MDEG1 + MDEG2 completely | decrease of sustained current [2]: sustained current by ˜30%; fast | Amiloride sensitivity (block of channels) [3]: Amiloride blocked gain of function | pIC50 [4]: 4.68
